Measurements reported in article PMC12650265 (The Journal of Experimental Medicine, 2025).
pIC50: −log10 of the molar value. Entries after “also recorded” stand apart in the source; their conditions may differ.

Key:
hMR1 protein = biological target: T1, hMR1 protein (Homo sapiens, UniProt Q95460); assay: fluorescence polarization–based cell-free assay, competition with JYM20 for MR1 binding; conditions: 50% inhibition of 10 nM JYM20 binding to 100 nM empty hMR1, 37°C; three independent experiments in triplicate
T1 construct: plasmids encoding for the extracellular domains of MR1, β2m, and the AF-7 TCRα and TCRβ chains; made in house; host or cells: Escherichia coli BL21(DE3)

soluble WT MR1 = assay: fluorescence-based thermal shift (thermostability) assay of MR1–ligand complexes; format: binding, human; conditions: MR1 refolded with the ligand; SYPRO Orange, 28 to 95°C; three independent experiments; listed as MR1-Lumichrome
[1] = tested on: T2, human MR1–β2-microglobulin (β2m) complex; assay: refolding of recombinant MR1-β2m with ligand; format: binding; conditions: ligand added to refolding buffer; gel filtration and SDS-PAGE
T2 construct: plasmids encoding for the extracellular domains of MR1, β2m, and the AF-7 TCRα and TCRβ chains; made in house

MR1^R9H = tested on: T3, MR1^R9H; assay: refolding of MR1^R9H with ligand in solution; format: binding, human
T3 construct: plasmids encoding for the extracellular domains of MR1, β2m, and the AF-7 TCRα and TCRβ chains; made in house
Excerpt: (§1) We then tested the effect of the RF catabolites on the expression of two mutant versions of MR1 termed MR1^R9H ([Howson et al., 2020]) and MR1^K43A ([Reantragoon et al., 2013]). First, we tested the MR1^R9H mutant ([Howson et al., 2020]), which represents a rare, natural human polymorph. […] We used C1R.MR1^R9H cells, which are produced by stable transduction of wild-type C1R cells, which express low levels of wild-type MR1, with a vector expressing the MR1^R9H mutant ([Howson et al., 2020]). […] When C1R. […] Next, we sought to understand how the previously characterized K43A mutation affects ligand binding.
Escherichia coli BL21(DE3) cells were transformed with plasmids encoding for the extracellular domains of MR1, β2m, and the AF-7 TCRα and TCRβ chains ([Kjer-Nielsen et al., 2012]; [Patel et al., 2013]; [Wang et al., 2022a]). The proteins were then expressed, and the inclusion bodies were purified, cleaned, and used for refolding. For both MR1 and AF-7 TCR, inclusion bodies were refolded through rapid dilution overnight as previously mentioned ([Keller et al., 2017]). To refold MR1 with ligands, 58 mg MR1 inclusion bodies along with 30 mg of β2m inclusion bodies were placed in 500 ml of refold buffer consisting of 0.1 M Tris, pH 8.0, 5 M of urea, 2 mM EDTA, 2.5 mM oxidized glutathione, 20 mM reduced glutathione, and 0.4 M of L-arginine for 16 h at 4°C. […]

[2] = tested on: T4, surface MR1*01 on C1R.MR1 cells; assay: quantification of cell surface MR1 by flow cytometry, C1R.MR1 cells; format: cell-based, human
T4 construct: expressed in transfected cells; host or cells: C1R B lymphoblastoid cells transduced with MR1*01

[3] = tested on: T5, MR1 on PBMC-derived B lymphocytes; assay: MR1 surface expression on primary B cells; format: cell-based; conditions: primary human B cells, 16 h, highest doses, with or without 5-OP-RU
T5 construct: we also measured MR1 on the surface of cells expressing wild-type levels of MR1; endogenous in cells; host or cells: PBMC-derived B lymphocytes from healthy human donors

[4] = tested on: T6, folded MR1 in C1R.MR1 cells; assay: intracellular total folded MR1 by flow cytometry (8F2.F9); format: cell-based, human; conditions: 16 h, 100 µM
T6 construct: expressed in transfected cells; host or cells: C1R B lymphoblastoid cells transduced with MR1*01

[5] = tested on: T7, MR1^K43A on C1R.MR1^K43A cells; assay: cell surface MR1^K43A by flow cytometry; format: cell-based, human
T7 construct: expressed in transfected cells; host or cells: C1R cells overexpressing MR1^K43A
Excerpt: as §1
The level of MR1 expressed on the cell surface was measured after the exposure to the investigated ligands as previously described ([Awad et al., 2020a]; [Wang et al., 2022a]). C1R Ag-presenting B lymphocytes overexpressing MR1*01 (C1R.MR1), MR1^K43A mutant (C1R.MR1^K43A), MR1^R9H mutant (C1R.MR1^R9H), or HLA-A*02:01 (C1R-A2), in addition to the monocytic THP-1-MR1 cells, were used in this study. 2 × 10^5 cells were incubated with RF catabolites for 3 or 16 h at 37°C and 5% CO2 in 200 μl folate-free RPMI 1640 medium from Gibco (Cat. No. 11875-093) fortified with 10% fetal bovine serum, sodium pyruvate (1 mmol/L), HEPES buffer (15 mmol/L), pH 7.2–7.5, 2% penicillin (100 U/ml), streptomycin ([…]), GlutaMAX (2 mmol/L), nonessential amino acids (0.1 mmol/L) (all from Thermo Fisher Scientific, Life Technologies), and 2-mercaptoethanol ([…], Sigma-Aldrich) (RF-10). After incubation, the cells were first stained with Zombie Aqua Fixable Viability Kit from BioLegend (Cat. No. 423102) and then incubated with biotinylated 8F2F9 αMR1 antibody for 30 min on ice. The unbound antibody was then washed off with 2% fetal bovine serum/PBS (called 2% FACS hereafter) buffer. The cells were finally incubated with PE-conjugated streptavidin (30 μg/ml; BioLegend) and then washed with 2% FACS buffer. The PE fluorescence intensity reflects the surface MR1 level. The data were acquired with LSRFortessa X-20 (BD Biosciences) and Diva software (BD Biosciences) and analyzed using FlowJo software (BD Biosciences).

[6] = tested on: SKW-3 cells expressing MAIT TCR AF-7; assay: SKW-3 reporter T cell activation (CD69), coculture with C1R.MR1; format: cell-based
Description: (§2) Given the intracellular MR1 retention induced by the RF catabolites, we anticipated that these ligands could influence the activity of MR1-reactive T cells. First, we utilized a system whereby reporter SKW-3 T cell lines were cocultured with C1R.MR1 APCs and activation was determined by CD69 expression. […] In contrast, SKW-3-MBV28 cells were inhibited by alloxazine but activated by lumichrome (Fig. S3, D–F). Two MR1-restricted TRAV1-2^−ve SKW-3 T cell lines were also tested.
(§3) C1R.MR1 cells (1 × 10^5) were initially stained with CTV (Thermo Fisher Scientific) for 15 min and then incubated with RF catabolites for 20 h. […] Cells were subsequently stained with PE-Cy7-conjugated anti-CD69 (1:100; BD Biosciences) and PE-labeled anti-MR1 (1:100, clone 26.5; BD Biosciences), before analysis on a LSRFortessa (BD Biosciences) flow cytometer. Activation of the SKW-3 cells was reflected by the cell surface CD69 expression.

[7] = tested on: SKW-3 cells expressing MAIT TCR MBV28; assay: as above; format: cell-based; conditions: SKW-3-MBV28, in the presence of 5-OP-RU
Description: as §2, §3

SKW-3-DGB129 line = assay: as above; format: cell-based; conditions: SKW-3-DGB129 cocultured with C1R.MR1
Description: as §2, §3

SKW-3-MAV36 line = assay: as above; format: cell-based; conditions: SKW-3-MAV36, in the presence of 5-OP-RU
Description: as §2, §3

[8] = tested on: CD3^+ MR1-5-OP-RU tetramer^+ MAIT cells; assay: MAIT cell proliferation in CTV-labeled PBMCs; format: cell-based, human; conditions: 7-day culture, 5-OP-RU 10 µM, others 100 µM
MAIT cells from PBMCs = assay: primary MAIT cell activation in PBMCs (CD69, TNF); format: cell-based, human; conditions: 18 h, in the presence of 5-OP-RU or 5-A-RU
[9] = tested on: MAIT and TRAV1-2^−ve cells from PBMCs; assay: TCR-independent or bead stimulation of PBMCs (PMA and ionomycin, αCD3/αCD28 beads); format: cell-based, human; conditions: PBMCs preincubated, then αCD3- and αCD28-coated beads
Vγ9Vδ2 T cells = assay: Vγ9Vδ2 T cell activation by zoledronate in PBMCs; format: cell-based, human; conditions: PBMCs titrated with ligand in the presence of zoledronate

T1 sequence (Q95460 23-302 limits assumed): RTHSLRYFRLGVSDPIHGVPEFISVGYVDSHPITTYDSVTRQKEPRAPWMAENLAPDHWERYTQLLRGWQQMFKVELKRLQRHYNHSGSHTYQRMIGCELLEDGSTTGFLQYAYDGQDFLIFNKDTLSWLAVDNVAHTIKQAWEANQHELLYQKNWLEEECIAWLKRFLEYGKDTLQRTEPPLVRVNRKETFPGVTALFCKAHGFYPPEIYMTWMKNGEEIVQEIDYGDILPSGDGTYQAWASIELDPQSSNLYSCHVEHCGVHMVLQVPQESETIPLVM
T1 sequence (P61769 21-119 partner): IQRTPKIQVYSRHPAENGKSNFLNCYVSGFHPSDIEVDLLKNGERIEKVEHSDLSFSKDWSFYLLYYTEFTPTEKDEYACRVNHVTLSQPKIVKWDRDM

How did the pIC50 (hMR1 protein) turn out when `Cc1cc2nc3[nH]c(=O)[nH]c(=O)c3nc2cc1C` [Lumichrome, 7,8-dimethylalloxazine] was run?
Its pIC50 is 4.90.

And the “Tm50 (half-maximum melting temperature), Mean ± SD” value (soluble WT MR1)?
The value was 49.89 ± 0.33 °C.

And the “folding of the MR1-β2m cocomplex in solution” value [1]?
The value was “facilitated the correct folding of the MR1-β2m cocomplex”.

And the “refolding with MR1^R9H” value (MR1^R9H)?
The value was “did not refold with MR1^R9H in solution; also recorded: unable to refold”.

What about the “MR1 cell surface expression” value ([2]; C1R.MR1 cells, 3 h, 1–200 µM, 8F2F9 antibody) of the same compound?
The value was “reduced MR1 cell surface”.

And the “rank as downregulator of MR1 cell surface expression” value ([2]; overall: lumichrome, then alloxazine, lumiflavin, FMF)?
The value was “most potent downregulator”.

And the MR1 surface expression [3]?
Its MR1 surface expression is “reduced MR1 surface expression”.

And the “total level of folded MR1 (intracellular staining with 8F2.F9)” value [4]?
Its value is “increased the total level of folded MR1”.

And the “MR1^K43A at the cell surface” value ([5]; 3 h)?
Its value is “increased MR1^K43A at the cell surface”.

What about the “MR1^K43A at the cell surface” value ([5]; 16 h) of the same compound?
Its value is “MR1 upregulation continues”.

And the “reactivity to 5-OP-RU (CD69)” value ([6]; SKW-3-AF-7, in the presence of 1 nM 5-OP-RU)?
The value was “enhanced activation”.

And the “reactivity to RL-7-Me (CD69)” value ([6]; SKW-3-AF-7, in the presence of 100 nM RL-7-Me)?
The value was “inhibited in a dose-dependent manner”.

What about the “reactivity to 5-OP-RU (CD69)” value [7] of the same compound?
Its value is “activated”.

And the “reactivity of MR1 autoreactive, nucleobase-adduct reactive line (CD69)” value (SKW-3-DGB129 line)?
The value was “inhibited”.

What about the “reactivity to 5-OP-RU (CD69)” value (SKW-3-MAV36 line) of the same compound?
Its value is “inhibited”.

And the MAIT cell proliferation [8]?
Its MAIT cell proliferation is “significantly reduced MAIT cell proliferation”.

What about the “MAIT cell inhibition (CD69 MFI, % CD69^+, TNF production)” value (MAIT cells from PBMCs) of the same compound?
Its value is “most potent competitor showing the strongest MAIT cell inhibition”.

And the “CD69 upregulation by MAIT or TRAV1-2^−ve cells” value [9]?
The value was “not reduced”.

What about the “Vγ9Vδ2 T cell activation induced by zoledronate (% CD69^+ Vδ2^+)” value (Vγ9Vδ2 T cells) of the same compound?
The value was “did not interfere”.
